The values below come from patent publication US7582611B2, “Motilide compounds” (Pfizer Inc., priority 2005, dated 2009).

Converted amounts (≈) assume the structure as drawn. Where two headings read alike, the source gives them in different places. Where only a bound is given, the exact number is not on record here.

One test deals with T1, Motilin Receptor (Oryctolagus cuniculus, UniProt G1T803).
T1 construct: strips of longitudinal smooth muscle were sliced from the segments; from tissue; host or cells: rabbit duodenum longitudinal smooth muscle strips
T1 sequence (G1T803 1-400): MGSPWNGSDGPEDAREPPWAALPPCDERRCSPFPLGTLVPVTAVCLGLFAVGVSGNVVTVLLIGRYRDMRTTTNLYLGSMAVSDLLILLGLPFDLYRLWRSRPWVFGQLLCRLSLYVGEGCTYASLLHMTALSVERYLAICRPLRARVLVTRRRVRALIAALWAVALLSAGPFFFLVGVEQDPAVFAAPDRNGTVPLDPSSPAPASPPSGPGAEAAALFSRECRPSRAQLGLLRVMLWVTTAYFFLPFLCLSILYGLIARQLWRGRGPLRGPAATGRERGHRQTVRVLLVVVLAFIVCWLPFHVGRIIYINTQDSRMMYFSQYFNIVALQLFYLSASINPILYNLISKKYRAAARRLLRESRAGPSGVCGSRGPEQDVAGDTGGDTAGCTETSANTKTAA
Nature of the test: Tissue based assay for motilin agonist potency (rabbit duodenum contractility). Type of test: cell-based. As to the method: The motilin agonist potencies of compounds of this invention were evaluated using a tissue based assay, using rabbit duodenum tissue-based contractility assay, generally following the procedure of Depoortere et al., J. Gastrointestinal Motility, 1, 150-159 (1989), the disclosure of which is incorporated herein by reference. Briefly, this method measures the ability of a compound to induce contractions in rabbit duodenal tissue, a motilin receptor-bearing tissue contractilely responsive to motilin.
Strips of rabbit duodenum were tested and qualified for use in the assay by as follows. Segments of rabbit duodenum, 20-30 cm distal to the pylorus were split longitudinally. The mucosa was removed and 2×2×15 mm strips of longitudinal smooth muscle were sliced from the segments. The strips were bathed in oxygenated Krebs solution at 37° C., with 1.5 g of tension, and contractions measured auxotonically.
The carbachol was then washed away by changing the organ bath buffer twice. The strips were washed again 20±5 minutes following the carbachol contraction. Following this last wash a dose response study was initiated within 10±5 min. Each compound tested was dissolved in dimethylsulfoxide (DMSO) to a final concentration of 10 mM. A series of seven 10× serial dilutions in water was prepared, so that the concentration of the seventh serial dilution was 1.0×10^−6 mM. The first through fifth serial dilutions of the compound were applied, starting with 200 μL of the most dilute solution. After each application, there was a wait of 2±0.5 min, until the response was stable, before the application of the next dose (the next higher concentration serial dilution). The dose was increased in 10-fold increments until a small response was observed. Subsequent doses were the increased in 2- to 5-fold increments, until the maximum response was obtained. At 2±0.5 min after the last drug addition, the strips were dosed with 1 μM carbachol.
The EC50 (concentration producing a half-maximal effect) was calculated as follows. The basal tension was subtracted from the compound-induced tension for each reading. The data points were normalized against the response obtained from 1 μM carbachol at the end of the experiment. The concentration of compound was plotted against the response and fitted to the following equation: R=(Rmax·C)/(EC50+C) where R is the contraction response, Rmax is the maximal contraction response, and C is the concentration of compound. Both R and Rmax are expressed as a fraction of the 1 μM carbachol contraction and range from 0 to 1.

Test [1] concerns Streptococcus pneumoniae ATCC 6301. Description: Evaluation of antibacterial activity (MIC, serial dilutions on 96-well microtiter plates). To be noted: ATCC6301, read-out: Antibacterial Activity (MIC, μg/mL). In kind it is cell-based.
Where [2] appears, read: rabbit duodenum strips, contraction normalized to 1 μM carbachol, read-out: Motilin Receptor Agonist Activity (EC50).

Take `CC[C@H]1OC(=O)[C@H](C)[C@@H](O[C@H]2C[C@@](C)(OC)[C@@H](O)[C@H](C)O2)[C@H](C)[C@@H](O[C@@H]2O[C@H](C)C[C@H](N(C)C[C@H](C)O)[C@H]2O)[C@](C)(O)C[C@@H](C)[C@H](OCC(N)=O)[C@H](C)[C@@H](O)[C@]1(C)O` [Compound A-14]: the 50% effective concentration (EC50) at Motilin Receptor (setting [2]) is 104 nM. Further, the MIC in test [1] was over 128 µg/mL.
For `CC[C@H]1OC(=O)[C@H](C)[C@@H](O[C@H]2C[C@@](C)(OC)[C@@H](O)[C@H](C)O2)[C@H](C)[C@@H](O[C@@H]2O[C@H](C)C[C@H](N(C)C(C)C)[C@H]2O)[C@](C)(O)C[C@@H](C)[C@H](OCC(=O)N(C)C)[C@H](C)[C@@H](O)[C@]1(C)O` [Compound A-15] the same measures were 660 nM and 64 µg/mL (≈ 75.4 µM).
For `CC[C@H]1OC(=O)[C@H](C)[C@@H](O[C@H]2C[C@@](C)(OC)[C@@H](O)[C@H](C)O2)[C@H](C)[C@@H](O[C@@H]2O[C@H](C)C[C@H](N(C)C(C)C)[C@H]2O)[C@](C)(O)C[C@@H](C)[C@H](OCCF)[C@H](C)[C@@H](O)[C@]1(C)O` [Compound A-49], the 50% effective concentration (EC50) at Motilin Receptor was found to be 140 nM. In addition, the MIC in test [1] is 128 µg/mL (≈ 158 µM).
Consider `CC[C@H]1OC(=O)[C@H](C)[C@@H](O[C@H]2C[C@@](C)(OC)[C@@H](O)[C@H](C)O2)[C@H](C)[C@@H](O[C@@H]2O[C@H](C)C[C@H](N(C)C(C)C)[C@H]2O)[C@](C)(O)C[C@@H](C)[C@H](NS(=O)(=O)CC)[C@H](C)[C@@H](O)[C@]1(C)O` [Compound A-40], for which the EC50 on Motilin Receptor (setting [2]) came to 350 nM. Moreover, the MIC in test [1] was determined as 128 µg/mL (≈ 150 µM).
On to `CC[C@H]1OC(=O)[C@H](C)[C@@H](O[C@H]2C[C@@](C)(OC)C[C@H](C)O2)[C@H](C)[C@@H](O[C@@H]2O[C@H](C)C[C@H](N(C)C(C)C)[C@H]2O)[C@](C)(O)C[C@@H](C)[C@H](OCC(=O)N(C)C)[C@H](C)[C@@H](O)[C@]1(C)O` [Compound A-60], for which, on Motilin Receptor (setting [2]), the EC50 was determined as 190 nM. Further, the MIC in test [1] turned out to be 128 µg/mL (≈ 154 µM).
For `CC[C@H]1OC(=O)[C@H](C)[C@@H](O[C@H]2C[C@@](C)(OC)[C@@H](O)[C@H](C)O2)[C@H](C)[C@@H](O[C@@H]2O[C@H](C)C[C@H](N(C)C(C)C)[C@H]2O)[C@](C)(O)C[C@@H](C)[C@H](NS(=O)(=O)C(F)(F)F)[C@H](C)[C@@H](O)[C@]1(C)O` [Compound A-43] the same measures were 330 nM and 64 µg/mL (≈ 71.5 µM).
For the molecule `CC[C@H]1OC(=O)[C@H](C)[C@@H](O[C@H]2C[C@@](C)(OC)[C@@H](O)[C@H](C)O2)[C@H](C)[C@@H](O[C@@H]2O[C@H](C)C[C@H](N(C)C3CCC3)[C@H]2O)[C@](C)(O)C[C@@H](C)[C@H](NS(C)(=O)=O)[C@H](C)[C@@H](O)[C@]1(C)O` [Compound A-39], on Motilin Receptor (setting [2]), the EC50 is 280 nM. The MIC in test [1] was over 128 µg/mL.
The like results for `CC[C@H]1OC(=O)[C@H](C)[C@@H](O[C@H]2C[C@@](C)(OC)[C@@H](O)[C@H](C)O2)[C@H](C)[C@@H](O[C@@H]2O[C@H](C)C[C@H](N(C)C(C)C)[C@H]2O)[C@](C)(O)C[C@@H](C)[C@H](OCC(=O)NC)[C@H](C)[C@@H](O)[C@]1(C)O` [Compound A-21] were, in that order, 58 nM and 64 µg/mL (≈ 76.6 µM).
For `CC[C@H]1OC(=O)[C@H](C)[C@@H](O[C@H]2C[C@@](C)(OC)[C@@H](O)[C@H](C)O2)[C@H](C)[C@@H](O[C@@H]2O[C@H](C)C[C@H](N(C)C(C)C)[C@H]2O)[C@](C)(O)C[C@@H](C)[C@H](OCc2ccncc2)[C@H](C)[C@@H](O)[C@]1(C)O` [Compound A-28], the 50% effective concentration (EC50) at Motilin Receptor (setting [2]) was over 420 nM. Besides, in test [1], the MIC stood at 128 µg/mL (≈ 150 µM).
The like results for `CC[C@H]1OC(=O)[C@H](C)[C@@H](OC2C[C@@](C)(OC)C[C@H](C)O2)[C@H](C)[C@@H](OC2O[C@H](C)C[C@H](N(C)CC)[C@H]2O)[C@@]2(C)CC(C)=C(O2)[C@H](C)[C@@H](O)[C@H]1C` (some centres unmarked) [ABT-229, reference compound] were, in that order, 7 nM and 64 µg/mL (≈ 91.7 µM).
For `CC[C@H]1OC(=O)[C@H](C)[C@@H](O[C@H]2C[C@@](C)(OC)[C@@H](O)[C@H](C)O2)[C@H](C)[C@@H](O[C@@H]2O[C@H](C)C[C@H](N(C)C(C)C)[C@H]2O)[C@](C)(O)C[C@@H](C)[C@H](OC(=O)N(C)C)[C@H](C)[C@@H](O)[C@H]1C` [Compound A-75] the same measures were 290 nM and over 128 µg/mL.
The like results for `CC[C@H]1OC(=O)[C@H](C)[C@@H](O[C@H]2C[C@@](C)(OC)[C@@H](O)[C@H](C)O2)[C@H](C)[C@@H](O[C@@H]2O[C@H](C)C[C@H](N(C)C(C)C)[C@H]2O)[C@](C)(O)C[C@@H](C)[C@H](OCCNC(=O)c2ccc3[nH]cnc3c2)[C@H](C)[C@@H](O)[C@]1(C)O` [Compound A-58] were, in that order, 37 nM and 128 µg/mL (≈ 135 µM).
Take `CC[C@H]1OC(=O)[C@H](C)[C@@H](O[C@H]2C[C@@](C)(OC)[C@@H](O)[C@H](C)O2)[C@H](C)[C@@H](O[C@@H]2O[C@H](C)C[C@H](N(C)C(C)C)[C@H]2O)[C@](C)(O)C[C@@H](C)[C@H](OCC(=O)O)[C@H](C)[C@@H](O)[C@]1(C)O` [Compound A-56]: the concentration for a half-maximal effect (EC50) at Motilin Receptor (setting [2]) worked out at 150 nM. For the same molecule, the MIC in test [1] stood at 128 µg/mL (≈ 156 µM).
The like results for `CC[C@H]1OC(=O)[C@H](C)[C@@H](O[C@H]2C[C@@](C)(OC)[C@@H](O)[C@H](C)O2)[C@H](C)[C@@H](O[C@@H]2O[C@H](C)C[C@H](N(C)C(C)C)[C@H]2O)[C@](C)(O)C[C@@H](C)[C@H](OCCNS(C)(=O)=O)[C@H](C)[C@@H](O)[C@]1(C)O` [Compound A-32] were, in that order, 240 nM and over 128 µg/mL.
For `CC[C@H]1OC(=O)[C@H](C)[C@@H](O[C@H]2C[C@@](C)(OC)[C@@H](O)[C@H](C)O2)[C@H](C)[C@@H](O[C@@H]2O[C@H](C)C[C@H](N(C)C(C)C)[C@H]2O)[C@](C)(O)C[C@@H](C)[C@H](OCc2ncc[nH]2)[C@H](C)[C@@H](O)[C@]1(C)O` [Compound A-62] the same measures were 63 nM and 128 µg/mL (≈ 152 µM).
The like results for `CC[C@H]1OC(=O)[C@H](C)[C@@H](O[C@H]2C[C@@](C)(OC)[C@@H](O)[C@H](C)O2)[C@H](C)[C@@H](O[C@@H]2O[C@H](C)C[C@H](N(C)C3CCC3)[C@H]2O)[C@](C)(O)C[C@@H](C)[C@H](OCC(=O)NC)[C@H](C)[C@@H](O)[C@]1(C)O` [Compound A-51] were, in that order, 510 nM and over 128 µg/mL.
In the case of `CC[C@H]1OC(=O)[C@H](C)[C@@H](O[C@H]2C[C@@](C)(OC)[C@@H](O)[C@H](C)O2)[C@H](C)[C@@H](O[C@@H]2O[C@H](C)C[C@H](N(C)CCO)[C@H]2O)[C@](C)(O)C[C@@H](C)[C@H](NS(C)(=O)=O)[C@H](C)[C@@H](O)[C@]1(C)O` [Compound A-36], the 50% effective concentration (EC50) on Motilin Receptor (setting [2]) was determined as 66 nM. Further, in test [1], the MIC worked out at 32 µg/mL (≈ 38 µM).
For `CC[C@H]1OC(=O)[C@H](C)[C@@H](O[C@H]2C[C@@](C)(OC)[C@@H](O)[C@H](C)O2)[C@H](C)[C@@H](O[C@@H]2O[C@H](C)C[C@H](N(C)CCO)[C@H]2O)[C@](C)(O)C[C@@H](C)[C@H](OC)[C@H](C)[C@@H](O)[C@]1(C)O` [Compound A-2] the same measures were 140 nM and 64 µg/mL (≈ 82.1 µM).
The like results for `CC[C@H]1OC(=O)[C@H](C)[C@@H](O[C@H]2C[C@@](C)(OC)[C@@H](O)[C@H](C)O2)[C@H](C)[C@@H](O[C@@H]2O[C@H](C)C[C@H](N(C)C(C)C)[C@H]2O)[C@](C)(O)C[C@@H](C)[C@H](OCCCCC(=O)NC)[C@H](C)[C@@H](O)[C@]1(C)O` [Compound A-74] were, in that order, 270 nM and 128 µg/mL (≈ 146 µM).
The like results for `CC[C@H]1OC(=O)[C@H](C)[C@@H](O[C@H]2C[C@@](C)(OC)[C@@H](O)[C@H](C)O2)[C@H](C)[C@@H](O[C@@H]2O[C@H](C)C[C@H](N(C)C(C)C)[C@H]2O)[C@](C)(O)C[C@@H](C)[C@H](OCC#N)[C@H](C)[C@@H](O)[C@]1(C)O` [Compound A-7] were, in that order, 210 nM and over 128 µg/mL.
As for `CC[C@H]1OC(=O)[C@H](C)[C@@H](O[C@H]2C[C@@](C)(OC)[C@@H](O)[C@H](C)O2)[C@H](C)[C@@H](O[C@@H]2O[C@H](C)C[C@H](N(C)C(C)C)[C@H]2O)[C@](C)(O)C[C@@H](C)[C@H](NS(=O)(=O)C2CC2)[C@H](C)[C@@H](O)[C@]1(C)O` [Compound A-41], the EC50 at Motilin Receptor (setting [2]) worked out at 170 nM. Also, the MIC in test [1] worked out at 128 µg/mL (≈ 148 µM).
For the molecule `CC[C@H]1OC(=O)[C@H](C)[C@@H](O[C@H]2C[C@@](C)(OC)[C@@H](O)[C@H](C)O2)[C@H](C)[C@@H](O[C@@H]2O[C@H](C)C[C@H](N(C)CC(C)C)[C@H]2O)[C@](C)(O)C[C@@H](C)[C@H](NS(C)(=O)=O)[C@H](C)[C@@H](O)[C@]1(C)O` [Compound A-38], the EC50 at Motilin Receptor (setting [2]) was determined as 140 nM. Also, the MIC in test [1] was 128 µg/mL (≈ 150 µM).

The EC50 is the midpoint of the concentration-response curve.
